# Tested on: reconstructed human epidermis
# Experiment: incorporation of 14C-acetate into total lipids in reconstructed human epidermis (Skinethic)
# Type: cell-based
# Conditions: for percentage of stimulation (incorporation of 14C-acetate, total lipid synthesis): untreated cells = 100
# Protocol: Study of the effect of β-naphthoxyacetic acid on the synthesis of the total lipids of the skin.
# The study is carried out by measuring the incorporation of acetate labelled with carbon-14 in models of reconstructed human epidermis sold by the company Skinethic, the total lipids composition of which is close to that of normal human epidermis.
# The reconstructed human epidermis is cultured according to the supplier's recommendations.
# β-Naphthoxyacetic acid, at concentrations of 10^−5, 10^−6, and 10^−7 M, is placed in contact for 72 hours with reconstructed human epidermides, after culturing the latter for 14 days under the conditions recommended by the supplier. The labelling with ^14C-acetate (sodium [2-^14C]-acetate sold by Amersham, 59 mci/mmol) is carried out 24 hours after placing the test product in contact with the culture, i.e. during the final 48 hours of culturing, at a rate of 0.5 μCi of ^14C-acetate per culture.
# At the end of culturing, after washing the epidermides with phosphate buffer (PBS), the epidermides are dissociated and the cells are lysed with 0.5 M perchloric acid from ice. The lysates then undergo an extraction with a methanol/chloroform mixture (2:1), a centrifugation and a re-extraction of the pellets obtained, under the same conditions as above. The lipids are separated by addition of PBS and chloroform (Blight-Byer technique). The organic phase containing the lipids is taken and the radioactivity incorporated into this phase is determined by liquid scintillation. The organic phase is then dried under a flow of nitrogen. A thin layer chromatography on plates on plates (Merck K60) using, as eluent, a chloroform/methanol/water mixture (50:18:2.6) to separate the phospholipids, or a hexane/ether/acetic acid mixture (15:5.6:0.19) to separate the neutral lipids.
# The plates are then autoradiographed for 24 hours and the chromatograms are analysed by densitometry using the One-D-Scan software from the company Scanalytics.
# The results are evaluated relative to a control consisting of cells which have not been treated with β-naphthoxyacetic acid.
# A positive control (10^−4 M trifluoperazine), which is known to stimulate lipid synthesis, and an negative control (10^−6 M retinoic acid) are introduced into the test by way of reference.
SMILES,"percentage of stimulation (incorporation of 14C-acetate, total lipid synthesis) (10^−6 M, 72 hours contact) [%]","percentage of stimulation (incorporation of 14C-acetate, total lipid synthesis) (10^−4 M, positive control) [%]","percentage of stimulation (incorporation of 14C-acetate, total lipid synthesis) (10^−5 M, 72 hours contact) [%]","effect on incorporation of acetate / lipid synthesis (in words) (10^−5 to 10^−7 M, reconstructed human epidermis)","percentage of stimulation (incorporation of 14C-acetate, total lipid synthesis) (10^−7 M, 72 hours contact) [%]"
"CC1=C(/C=C/C(C)=C/C=C/C(C)=C/C(=O)O)C(C)(C)CCC1 [Retinoic acid, retinoic acid, reference compound]",82,,,,
"CN1CCN(CCCN2c3ccccc3Sc3ccc(C(F)(F)F)cc32)CC1 [Trifluoroperazine, trifluoperazine, reference compound]",,122,,,
O=C(O)COc1ccc2ccccc2c1 [β-Naphthoxyacetic acid],113,,110,significantly stimulates the incorporation of acetate,116

# Source: patent US6521239B1, “Cosmetic composition containing at least one auxin and its use” (Societe L'Oreal S.A., priority 1997, dated 2003)
